# Measured values from patent US6149912A (priority 1998, dated 2000).
# Like-named read-outs stand apart in the source and are kept apart here.
# Legend:
# S. typhimurium SL1344 [1] = system: S. typhimurium SL1344; set-up: species or system Salmonella typhimurium (in CF-1 mice); settings: mouse, in vivo
# [2] = in vivo; cited from earlier work
# S. typhimurium SL1344 [3] = assay type: in vivo, Salmonella typhimurium (in CF-1 mice); settings: for protective activity against bacterial infection (in words): glycoalkaloid vs aglycon, 8 LD50 i.p.; for survival, illness, weight loss and infection after multiple treatment (in words): multiple i.p. treatment, 5 days after infection / 12 day observation; for animals protected against massive doses: single or multiple injections, 25 LD50 i.p.
# mice = settings: cited from earlier work
# S. typhimurium = settings: mouse, in vivo; cited from earlier work
# [4] = LD50 (acute toxicity) in mice; settings: mouse, in vivo, 0.03-0.3 mg/kg vs LD50 42 mg/kg, read-out: effective dose relative to LD50 (times lower)
# [5] = 1 μg (or 0.5 μg + 0.5 μg) i.p. 3 times every other day before i.p. challenge (3.5 × 10^3 CFU, 25 LD50), 5 days post challenge
# [6] = 1 μg (or 0.5 μg + 0.5 μg) i.p. 3 times every other day before i.p. challenge (25 LD50), 5 days post challenge, p < 0.001 vs control
# [7] = single 1 μg dose five days prior to challenge with 25 LD50
# [8] = solanine 1 μg, solanidine or diosgenin 0.5 μg/mouse, inguinal pocket, 5 days before i.p. challenge (1.2 × 10^3 CFU, 8 LD50), 5 days post challenge
# [9] = solanine 1 μg, solanidine or diosgenin 0.5 μg/mouse, inguinal pocket, 5 days before i.p. challenge (8 LD50), 5 days post challenge
SMILES,poisoning [2],Survival rate (S. typhimurium SL1344 [3]; [5]),Liver Culture (S. typhimurium SL1344 [3]; [6]) [CFU/500 mg × 10^6],Spleen Culture (S. typhimurium SL1344 [3]; [6]) [CFU/100 mg × 10^6],protective activity against bacterial infection (in words) (S. typhimurium SL1344 [3]),"survival, illness, weight loss and infection after multiple treatment (in words) (S. typhimurium SL1344 [3]; 25 LD50)",Survival rate (S. typhimurium SL1344 [3]; [7]),animals protected against massive doses (S. typhimurium SL1344 [3]),Survival rate (S. typhimurium SL1344 [3]; [8]),Liver Culture (S. typhimurium SL1344 [3]; [9]) [CFU/500 mg × 10^6],Spleen Culture (S. typhimurium SL1344 [3]; [9]) [CFU/100 mg × 10^6],LD50 (mice) [mg/kg],other results
C[C@H]1CC[C@@H]2[C@@H](C)[C@H]3[C@H](C[C@H]4[C@@H]5CC=C6C[C@@H](O[C@@H]7O[C@H](CO)[C@H](O)[C@H](O[C@@H]8O[C@H](CO)[C@@H](O)[C@H](O)[C@H]8O)[C@H]7O[C@@H]7O[C@@H](C)[C@H](O)[C@@H](O)[C@H]7O)CC[C@]6(C)[C@H]5CC[C@]34C)N2C1 [solanine],can cause poisoning,8/8,0.08 ± 0.07,0.08 ± 0.02,only solanine was able to effectively protect mice against the bacterial infection,no signs of illness or weight loss during a 12 day observation period,approximately 40%,sixty to a hundred percent of the animals were protected,9/10,0.8 ± 0.5,0.8 ± 0.5,42,"Fecal Culture (S. typhimurium SL1344 [1]): 20.0 ± 3.5; Liver Culture (S. typhimurium SL1344 [1]): 0.3 ± 0.1; Spleen Culture (S. typhimurium SL1344 [1]): 2.0 ± 0.2; Survival rate (S. typhimurium SL1344 [1]): 5/5; animals with enhanced resistance to infection (FIG. 1) (S. typhimurium SL1344 [3]; single 0.1, 1.0 or 10.0 μg, challenge (25 LD50) 1, 7 or 14 days later): 40-70%; duration of enhanced host resistance (S. typhimurium SL1344 [3]; single treatment, 1.0 and 10.0 μg, 25 LD50): at least 2 weeks; LD50 (mice; listed as Solanine): 40 to 50 mg/kg"
"C[C@@H]1CC[C@@]2(OC1)O[C@H]1C[C@H]3[C@@H]4CC=C5C[C@@H](O)CC[C@]5(C)[C@H]4CC[C@]3(C)[C@H]1[C@@H]2C [diosgenin, reference compound]",,,,,Neither solanidine nor diosgenin possessed any protective activity,,,,4/10,8.5 ± 3.3,4.8 ± 1.8,,
"C[C@H]1CC[C@@H]2[C@@H](C)[C@H]3[C@H](C[C@H]4[C@@H]5CC=C6C[C@@H](O)CC[C@]6(C)[C@H]5CC[C@]34C)N2C1 [solanidine, reference compound]",,,,,Neither solanidine nor diosgenin possessed any protective activity,,,,3/10,5.3 ± 2.4,1.7 ± 0.6,,
CC(=O)N[C@H]1C(O)O[C@H](CO)[C@@H](O)[C@@H]1O[C@H](C)C(=O)N[C@@H](C)C(=O)N[C@H](CCC(=O)O)C(N)=O (some centres unmarked) [muramyldipeptide],,,,,,,,,,,,,mice protected (S. typhimurium): 50%
C[C@H]1CC[C@@H]2[C@@H](C)[C@H]3[C@H](C[C@H]4[C@@H]5CC=C6C[C@@H](O[C@@H]7O[C@H](CO)[C@@H](O[C@@H]8O[C@@H](C)[C@H](O)[C@@H](O)[C@H]8O)[C@H](O)[C@H]7O[C@@H]7O[C@@H](C)[C@H](O)[C@@H](O)[C@H]7O)CC[C@]6(C)[C@H]5CC[C@]34C)N2C1 [chaconine],can cause poisoning,8/8,0.12 ± 0.09,0.03 ± 0.01,,no signs of illness or weight loss during a 12 day observation period,~75%,sixty to a hundred percent of the animals were protected,,,,42,therapeutic index (LD50 / effective dose) [4]: 100 to 1000; LD50 (mice; listed as Chaconine): 40 to 50 mg/kg
